In PubChem BioAssay AID463149 (The Scripps Research Institute Molecular Screening Center, 2010):

Experiments:
Experiment in all cases: PME-1 inhibitors in HeLa proteome, late-stage follow-up, selectivity assay, cell lysate, gel-based competitive ABPP, fluorescence, powder samples (AID 463149);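 note: 0% = DMSO-treated band intensity and 100% = blank gel background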
[1] = test system: Anti-Target CES; settings: HeLa soluble proteome, FP-Rh fluorescence, measured here: Anti-Target CES, stronger effect = higher value
[2] = test system: Anti-Target PREP; settings: HeLa soluble proteome, FP-Rh fluorescence, measured here: Anti-Target PREP, stronger effect = higher value
[3] = molecular target: Fatty acid synthase (Homo sapiens) (UniProt P49327); settings: HeLa soluble proteome, FP-Rh fluorescence, measured here: Anti-Target FAS, stronger effect = higher value
[4] = test system: Anti-Target ABHD10; settings: HeLa soluble proteome, FP-Rh fluorescence, stronger effect = higher value
[5] = molecular target: Acylamino-acid-releasing enzyme (Homo sapiens) (UniProt P13798); settings: HeLa soluble proteome, FP-Rh fluorescence, measured here: Anti-Target APEH, stronger effect = higher value
[6] = molecular target: Protein phosphatase methylesterase 1 (Homo sapiens) (UniProt Q9Y570); settings: HeLa soluble proteome, FP-Rh fluorescence, stronger effect = higher value
[7] = measured here: Anti-Target ABHD10, at 1 µM
[8] = measured here: Anti-Target ABHD10, at 20 µM

Chain of Fatty acid synthase (Homo sapiens) (P49327 whole entry, looked up): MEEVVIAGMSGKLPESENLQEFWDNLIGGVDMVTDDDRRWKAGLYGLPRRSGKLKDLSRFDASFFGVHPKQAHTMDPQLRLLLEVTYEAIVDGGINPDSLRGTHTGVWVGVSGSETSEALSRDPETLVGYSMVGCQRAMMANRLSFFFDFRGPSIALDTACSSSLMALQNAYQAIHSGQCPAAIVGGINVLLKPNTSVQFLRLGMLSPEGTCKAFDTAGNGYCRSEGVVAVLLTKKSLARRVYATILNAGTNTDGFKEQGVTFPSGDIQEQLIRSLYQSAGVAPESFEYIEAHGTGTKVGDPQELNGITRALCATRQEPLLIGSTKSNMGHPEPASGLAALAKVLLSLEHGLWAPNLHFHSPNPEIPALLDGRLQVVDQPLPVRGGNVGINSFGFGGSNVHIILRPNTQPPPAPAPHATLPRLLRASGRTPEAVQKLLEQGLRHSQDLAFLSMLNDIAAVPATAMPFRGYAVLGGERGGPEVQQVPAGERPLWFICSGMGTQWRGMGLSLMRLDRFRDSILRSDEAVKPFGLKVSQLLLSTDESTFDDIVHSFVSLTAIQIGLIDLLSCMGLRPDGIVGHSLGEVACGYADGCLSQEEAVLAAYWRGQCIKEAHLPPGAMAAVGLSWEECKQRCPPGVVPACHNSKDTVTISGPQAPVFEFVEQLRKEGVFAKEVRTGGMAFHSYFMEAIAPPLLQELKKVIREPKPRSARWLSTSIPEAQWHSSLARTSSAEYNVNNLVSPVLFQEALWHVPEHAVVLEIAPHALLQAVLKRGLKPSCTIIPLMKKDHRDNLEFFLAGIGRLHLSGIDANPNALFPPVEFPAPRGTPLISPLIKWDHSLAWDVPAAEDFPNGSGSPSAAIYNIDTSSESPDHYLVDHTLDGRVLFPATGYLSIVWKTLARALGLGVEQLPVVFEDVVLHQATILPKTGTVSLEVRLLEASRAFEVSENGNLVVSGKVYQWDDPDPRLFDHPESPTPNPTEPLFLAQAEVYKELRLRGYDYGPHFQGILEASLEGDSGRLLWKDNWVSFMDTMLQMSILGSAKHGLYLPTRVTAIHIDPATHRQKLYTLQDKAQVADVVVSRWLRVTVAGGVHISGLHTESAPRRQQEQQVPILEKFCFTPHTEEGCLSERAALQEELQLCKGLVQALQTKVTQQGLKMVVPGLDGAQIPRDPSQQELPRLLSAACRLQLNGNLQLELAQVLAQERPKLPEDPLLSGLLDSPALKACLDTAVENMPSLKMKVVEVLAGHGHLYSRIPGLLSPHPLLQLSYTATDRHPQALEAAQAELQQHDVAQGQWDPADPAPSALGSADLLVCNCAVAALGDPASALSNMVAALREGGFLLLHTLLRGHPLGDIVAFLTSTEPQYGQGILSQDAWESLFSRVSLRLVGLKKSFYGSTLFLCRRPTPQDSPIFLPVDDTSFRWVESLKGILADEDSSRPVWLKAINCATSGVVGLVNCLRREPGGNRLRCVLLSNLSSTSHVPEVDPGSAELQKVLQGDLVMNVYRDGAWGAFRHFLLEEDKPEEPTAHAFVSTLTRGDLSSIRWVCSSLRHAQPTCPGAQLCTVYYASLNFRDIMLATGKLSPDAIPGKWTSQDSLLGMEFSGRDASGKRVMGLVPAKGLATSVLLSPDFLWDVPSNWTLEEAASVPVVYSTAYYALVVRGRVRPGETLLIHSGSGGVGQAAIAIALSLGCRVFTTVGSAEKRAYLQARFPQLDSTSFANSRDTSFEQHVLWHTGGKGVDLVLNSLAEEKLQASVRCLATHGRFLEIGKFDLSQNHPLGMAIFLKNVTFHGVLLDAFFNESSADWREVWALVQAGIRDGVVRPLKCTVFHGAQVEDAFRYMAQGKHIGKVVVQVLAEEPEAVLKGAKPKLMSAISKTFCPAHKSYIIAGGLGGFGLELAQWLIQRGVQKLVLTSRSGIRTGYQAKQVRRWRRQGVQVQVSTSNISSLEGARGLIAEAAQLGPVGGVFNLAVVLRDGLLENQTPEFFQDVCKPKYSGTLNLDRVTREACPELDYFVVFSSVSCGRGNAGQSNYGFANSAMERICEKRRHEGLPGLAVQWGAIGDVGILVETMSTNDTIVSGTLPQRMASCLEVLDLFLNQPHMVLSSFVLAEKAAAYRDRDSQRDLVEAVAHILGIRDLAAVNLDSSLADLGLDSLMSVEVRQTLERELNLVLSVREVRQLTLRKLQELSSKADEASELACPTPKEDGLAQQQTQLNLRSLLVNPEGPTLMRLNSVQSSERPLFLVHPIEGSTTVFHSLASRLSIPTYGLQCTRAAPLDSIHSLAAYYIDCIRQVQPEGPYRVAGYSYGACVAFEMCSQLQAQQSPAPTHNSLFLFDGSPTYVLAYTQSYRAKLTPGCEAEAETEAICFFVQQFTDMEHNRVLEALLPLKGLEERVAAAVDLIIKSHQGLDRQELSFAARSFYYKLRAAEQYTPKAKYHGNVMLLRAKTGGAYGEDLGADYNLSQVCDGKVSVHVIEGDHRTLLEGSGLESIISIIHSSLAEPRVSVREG
Chain of Acylamino-acid-releasing enzyme (Homo sapiens) (P13798 whole entry, looked up): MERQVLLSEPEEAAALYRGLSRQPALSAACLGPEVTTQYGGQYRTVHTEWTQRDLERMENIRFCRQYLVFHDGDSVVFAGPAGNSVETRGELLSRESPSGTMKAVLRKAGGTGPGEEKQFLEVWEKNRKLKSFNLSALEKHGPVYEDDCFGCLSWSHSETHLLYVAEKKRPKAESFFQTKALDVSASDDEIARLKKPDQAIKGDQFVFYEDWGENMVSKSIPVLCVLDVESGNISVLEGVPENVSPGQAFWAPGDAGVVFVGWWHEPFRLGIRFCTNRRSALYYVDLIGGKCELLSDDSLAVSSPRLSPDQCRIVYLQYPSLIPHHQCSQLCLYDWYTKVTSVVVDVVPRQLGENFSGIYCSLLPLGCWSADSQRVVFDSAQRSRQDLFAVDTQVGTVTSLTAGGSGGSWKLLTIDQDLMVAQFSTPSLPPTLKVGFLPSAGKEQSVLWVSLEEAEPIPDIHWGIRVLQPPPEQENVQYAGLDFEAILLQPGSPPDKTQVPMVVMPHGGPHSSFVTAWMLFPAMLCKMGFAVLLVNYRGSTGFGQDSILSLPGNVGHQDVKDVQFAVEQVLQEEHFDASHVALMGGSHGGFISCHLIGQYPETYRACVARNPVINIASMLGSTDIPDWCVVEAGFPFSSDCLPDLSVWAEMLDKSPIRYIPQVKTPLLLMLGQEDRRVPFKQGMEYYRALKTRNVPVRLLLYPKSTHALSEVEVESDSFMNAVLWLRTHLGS
Chain of Protein phosphatase methylesterase 1 (Homo sapiens) (Q9Y570 whole entry, looked up): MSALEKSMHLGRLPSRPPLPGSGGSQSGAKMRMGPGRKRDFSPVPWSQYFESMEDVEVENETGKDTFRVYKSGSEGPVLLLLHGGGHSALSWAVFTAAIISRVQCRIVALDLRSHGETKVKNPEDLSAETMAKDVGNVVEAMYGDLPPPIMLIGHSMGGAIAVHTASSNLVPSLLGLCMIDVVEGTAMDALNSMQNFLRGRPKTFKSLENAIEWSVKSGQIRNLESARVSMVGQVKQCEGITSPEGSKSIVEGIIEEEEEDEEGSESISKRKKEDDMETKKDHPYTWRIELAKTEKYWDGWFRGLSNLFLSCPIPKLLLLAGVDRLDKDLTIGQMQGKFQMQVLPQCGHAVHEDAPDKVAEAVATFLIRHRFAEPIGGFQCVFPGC

inhibition ([1]; at 1 µM) [%]	inhibition ([1]; at 20 µM) [%]	inhibition ([2]; at 1 µM) [%]	inhibition ([2]; at 20 µM) [%]	inhibition ([3]; at 1 µM) [%]	inhibition ([3]; at 20 µM) [%]	inhibition [4, 7] [%]	inhibition [4, 8] [%]	inhibition ([5]; at 1 µM) [%]	inhibition ([5]; at 20 µM) [%]	inhibition ([6]; PME-1, at 0.1 µM) [%]	inhibition ([6]; PME-1, inhibition, at 1 µM) [%]	inhibition ([6]; PME-1, inhibition, at 20 µM) [%]	SMILES
> 50	> 50	0	0	0	0	0	0	0	0	–	75	100	CC[C@]1(c2ccccc2)C(=O)N(C(=O)OC)N1C(=O)OC
> 50	> 50	0	0	0	> 50	0	0	0	> 50	–	100	100	COC(=O)N1C(=O)[C@@](CC(C)C)(c2ccccc2)N1C(=O)OC
0	> 50	0	> 50	0	0	0	50	0	0	–	0	100	CC[C@@]1(c2ccccc2)C(=O)N(C(=O)OC)N1C(=O)OC
> 50	> 50	0	0	> 50	> 50	0	0	0	> 50	100	100	100	COC(=O)N1C(=O)[C@](CC(C)C)(c2ccccc2)N1C(=O)OC
0	> 50	0	0	0	0	0	0	0	0	–	0	100	COC(=O)N1C(=O)[C@@](c2ccccc2)(C(C)C)N1C(=O)OC
0	> 50	0	0	0	0	0	0	0	0	–	0	100	CC[C@]1(c2ccccc2C)C(=O)N(C(=O)OC)N1C(=O)OC

Further lines, the molecule ahead of its results:

SMILES	inhibition ([1]; at 1 µM) [%]	inhibition ([1]; at 20 µM) [%]	inhibition ([2]; at 1 µM) [%]	inhibition ([2]; at 20 µM) [%]	inhibition ([3]; at 1 µM) [%]	inhibition ([3]; at 20 µM) [%]	inhibition [4, 7] [%]	inhibition [4, 8] [%]	inhibition ([5]; at 1 µM) [%]	inhibition ([5]; at 20 µM) [%]	inhibition ([6]; PME-1, at 0.1 µM) [%]	inhibition ([6]; PME-1, inhibition, at 1 µM) [%]	inhibition ([6]; PME-1, inhibition, at 20 µM) [%]
COC(=O)N1C(=O)[C@@](c2ccccc2)(C2CCCC2)N1C(=O)OC	0	0	0	0	0	0	0	0	0	0	50	100	100
CCOC(=O)N1C(=O)[C@@](CC)(c2ccccc2)N1C(=O)OCC	0	> 50	0	> 50	0	0	0	50	0	0	–	0	0
COC(=O)N1C(=O)[C@](c2ccccc2)(C2CCCCC2)N1C(=O)OC	0	0	0	0	0	> 50	0	0	0	0	90	100	100
CC[C@]1(c2cccc(C)c2)C(=O)N(C(=O)OC)N1C(=O)OC	> 50	> 50	0	0	0	> 50	0	0	0	0	–	50	100
COC(=O)N1C(=O)[C@@](Cc2ccccc2)(c2ccccc2)N1C(=O)OC	> 50	> 50	0	0	0	0	0	50	0	0	–	0	50
COC(=O)N1C(=O)[C@](c2ccsc2)(C(C)C)N1C(=O)OC	0	0	0	0	0	0	0	0	0	0	–	50	100
CCOC(=O)N1C(=O)[C@](CC)(c2ccccc2)N1C(=O)OCC	> 50	> 50	0	0	0	> 50	0	0	0	0	–	0	100
CC[C@@]1(c2cccc(C)c2)C(=O)N(C(=O)OC)N1C(=O)OC	> 50	> 50	0	> 50	0	> 50	0	50	0	0	–	0	100
CC[C@@]1(c2ccccc2C)C(=O)N(C(=O)OC)N1C(=O)OC	> 50	> 50	0	0	0	0	0	0	0	0	–	50	100
COC(=O)N1C(=O)[C@](c2ccc(OC)cc2)(C(C)C)N1C(=O)OC	0	0	0	0	0	> 50	0	0	0	0	–	100	100
COC(=O)N1C(=O)[C@](c2ccccc2)(C2CCCC2)N1C(=O)OC	0	0	0	0	0	> 50	0	0	0	> 50	100	100	100
CCOC(=O)N1C(=O)[C@](c2ccc(Cl)cc2)(C(C)C)N1C(=O)OCC	0	0	0	0	0	0	0	0	0	0	–	50	100
